{"source": "ChEMBL document CHEMBL1155237", "about": "“Selective inhibitors of the mutant B-Raf pathway: discovery of a potent and orally bioavailable aminoisoquinoline” (J Med Chem, 2009)", "key": {"[1]": {"target": "Cyclin-dependent kinase 17 (Homo sapiens) (UniProt Q00537)", "sequence (Q00537 whole entry, looked up)": "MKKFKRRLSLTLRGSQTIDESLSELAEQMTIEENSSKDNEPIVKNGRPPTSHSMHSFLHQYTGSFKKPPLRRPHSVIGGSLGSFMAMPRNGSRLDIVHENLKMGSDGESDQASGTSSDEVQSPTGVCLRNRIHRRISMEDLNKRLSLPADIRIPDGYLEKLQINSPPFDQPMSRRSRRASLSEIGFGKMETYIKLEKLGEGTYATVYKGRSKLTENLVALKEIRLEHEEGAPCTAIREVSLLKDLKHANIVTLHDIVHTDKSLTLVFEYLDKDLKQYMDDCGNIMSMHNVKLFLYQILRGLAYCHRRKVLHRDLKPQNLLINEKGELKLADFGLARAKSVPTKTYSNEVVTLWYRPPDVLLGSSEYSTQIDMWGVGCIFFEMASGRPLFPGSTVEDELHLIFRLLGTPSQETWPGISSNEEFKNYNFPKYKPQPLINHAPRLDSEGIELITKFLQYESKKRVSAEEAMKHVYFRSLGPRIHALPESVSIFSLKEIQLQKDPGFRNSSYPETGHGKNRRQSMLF", "experiment": "Inhibition of PCTK2 assessed as enzyme activity at 1 uM relative to untreated control", "design": "scale not given: the % may be the effect or the level left"}, "[2]": {"system": "Tyrosine-protein kinase ABL1 (Homo sapiens), P00519 [H396P]", "experiment": "Inhibition of ABL1 H396P mutant assessed as enzyme activity at 1 uM relative to untreated control", "design": "scale not given: the % may be the effect or the level left"}, "[3]": {"target": "Calcium/calmodulin-dependent protein kinase type IV (Homo sapiens) (UniProt Q16566)", "experiment": "Inhibition of CAMK4 assessed as enzyme activity at 1 uM relative to untreated control", "design": "scale not given: the % may be the effect or the level left"}, "[4]": {"target": "Protein kinase C theta type (Homo sapiens) (UniProt Q04759)", "experiment": "Inhibition of PRKCQ assessed as enzyme activity at 1 uM relative to untreated control", "design": "scale not given: the % may be the effect or the level left"}, "[5]": {"system": "Tyrosine-protein kinase ABL1 (Homo sapiens), P00519 [M351T]", "experiment": "Inhibition of ABL1 M351T mutant assessed as enzyme activity at 1 uM relative to untreated control", "design": "scale not given: the % may be the effect or the level left"}, "A-375": {"system": "A-375", "experiment": "Antitumor activity against human A375 SQ2 cells xenografted in po dosed CD1 mouse assessed as inhibition of tumor growth administered once daily for 14 days", "format": "functional", "conditions": "336 h"}, "[6]": {"target": "Tyrosine-protein kinase TXK (Homo sapiens) (UniProt P42681)", "sequence (P42681 whole entry)": "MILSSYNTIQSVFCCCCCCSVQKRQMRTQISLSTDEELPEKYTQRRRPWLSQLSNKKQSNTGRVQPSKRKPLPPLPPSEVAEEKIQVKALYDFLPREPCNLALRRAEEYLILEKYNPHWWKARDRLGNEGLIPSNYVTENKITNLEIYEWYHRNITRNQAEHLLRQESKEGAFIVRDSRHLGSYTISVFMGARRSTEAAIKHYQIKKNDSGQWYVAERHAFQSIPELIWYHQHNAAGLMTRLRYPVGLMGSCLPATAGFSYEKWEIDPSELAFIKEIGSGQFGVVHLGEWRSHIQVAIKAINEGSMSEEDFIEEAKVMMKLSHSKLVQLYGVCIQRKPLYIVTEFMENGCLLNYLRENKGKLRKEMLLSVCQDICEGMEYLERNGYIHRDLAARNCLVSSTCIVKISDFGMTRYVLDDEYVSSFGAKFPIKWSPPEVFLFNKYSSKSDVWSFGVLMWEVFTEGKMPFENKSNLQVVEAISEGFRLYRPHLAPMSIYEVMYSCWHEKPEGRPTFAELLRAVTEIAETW", "experiment": "Inhibition of TXK assessed as enzyme activity at 1 uM relative to untreated control", "design": "scale not given: the % may be the effect or the level left"}, "[7]": {"target": "Tyrosine-protein kinase Fer (Homo sapiens) (UniProt P16591)", "experiment": "Inhibition of FER assessed as enzyme activity at 1 uM relative to untreated control", "design": "scale not given: the % may be the effect or the level left"}, "Angiopoietin-1 receptor": {"target": "Angiopoietin-1 receptor (Homo sapiens, UniProt Q02763)", "experiment": "Inhibition of Tie2"}, "[8]": {"target": "Mitogen-activated protein kinase 13 (Homo sapiens) (UniProt O15264)", "experiment": "Inhibition of p38delta assessed as enzyme activity at 1 uM relative to untreated control", "design": "scale not given: the % may be the effect or the level left"}, "[9]": {"target": "cGMP-dependent protein kinase 1 (Homo sapiens) (UniProt Q13976)", "experiment": "Inhibition of PRKG1 assessed as enzyme activity at 1 uM relative to untreated control", "design": "scale not given: the % may be the effect or the level left"}, "[10]": {"system": "Epidermal growth factor receptor (Homo sapiens), P00533 [L858R]", "experiment": "Inhibition of EGFR L858R mutant assessed as enzyme activity at 1 uM relative to untreated control", "format": "protein assay", "design": "scale not given: the % may be the effect or the level left"}, "[11]": {"target": "Serine/threonine-protein kinase ULK2 (Homo sapiens) (UniProt Q8IYT8)", "experiment": "Inhibition of ULK2 assessed as enzyme activity at 1 uM relative to untreated control", "design": "scale not given: the % may be the effect or the level left"}, "[12]": {"target": "Tyrosine-protein kinase JAK2 (Homo sapiens) (UniProt O60674)", "experiment": "Inhibition of JAK2 kinase domain 2 assessed as enzyme activity at 1 uM relative to untreated control", "design": "scale not given: the % may be the effect or the level left"}, "[13]": {"experiment": "Elimination half life in CD1 mouse", "format": "ADME, organism-based", "conditions": "in vivo, read-out: beta t1/2 (converted)"}, "[14]": {"target": "Receptor-interacting serine/threonine-protein kinase 1 (Homo sapiens) (UniProt Q13546)", "experiment": "Inhibition of RIPK1 assessed as enzyme activity at 1 uM relative to untreated control", "design": "scale not given: the % may be the effect or the level left"}, "[15]": {"target": "Casein kinase II subunit alpha (Homo sapiens) (UniProt P68400)", "experiment": "Inhibition of CSNK2A1 assessed as enzyme activity at 1 uM relative to untreated control", "design": "scale not given: the % may be the effect or the level left"}, "[16]": {"target": "Phosphatidylinositol 5-phosphate 4-kinase type-2 beta (Homo sapiens) (UniProt P78356)", "experiment": "Inhibition of PIP5K2B assessed as enzyme activity at 1 uM relative to untreated control", "design": "scale not given: the % may be the effect or the level left"}, "[17]": {"target": "Mitogen-activated protein kinase kinase kinase kinase 1 (Homo sapiens) (UniProt Q92918)", "experiment": "Inhibition of MAP4K1 assessed as enzyme activity at 1 uM relative to untreated control", "design": "scale not given: the % may be the effect or the level left"}, "[18]": {"target": "Tyrosine-protein kinase ITK/TSK (Homo sapiens) (UniProt Q08881)", "sequence (Q08881 whole entry)": "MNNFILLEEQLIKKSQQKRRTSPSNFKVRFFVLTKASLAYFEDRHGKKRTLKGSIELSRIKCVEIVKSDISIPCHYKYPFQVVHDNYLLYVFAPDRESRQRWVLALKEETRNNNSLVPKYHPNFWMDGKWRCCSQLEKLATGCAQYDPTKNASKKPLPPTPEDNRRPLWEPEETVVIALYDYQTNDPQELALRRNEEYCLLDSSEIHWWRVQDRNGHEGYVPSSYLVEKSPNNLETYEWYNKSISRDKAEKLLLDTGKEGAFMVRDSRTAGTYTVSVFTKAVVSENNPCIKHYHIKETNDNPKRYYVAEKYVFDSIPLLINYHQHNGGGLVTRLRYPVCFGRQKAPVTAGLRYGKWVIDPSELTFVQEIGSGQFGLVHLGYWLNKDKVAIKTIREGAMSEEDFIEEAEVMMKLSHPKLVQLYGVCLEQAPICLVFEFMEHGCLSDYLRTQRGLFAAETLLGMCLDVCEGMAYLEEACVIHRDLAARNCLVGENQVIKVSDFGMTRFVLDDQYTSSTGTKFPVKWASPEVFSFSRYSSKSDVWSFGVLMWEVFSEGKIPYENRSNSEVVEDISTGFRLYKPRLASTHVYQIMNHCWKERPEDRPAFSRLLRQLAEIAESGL", "experiment": "Inhibition of ITK assessed as enzyme activity at 1 uM relative to untreated control", "design": "scale not given: the % may be the effect or the level left"}, "[19]": {"target": "Mitogen-activated protein kinase 4 (Homo sapiens) (UniProt P31152)", "experiment": "Inhibition of ERK4 assessed as enzyme activity at 1 uM relative to untreated control", "design": "scale not given: the % may be the effect or the level left"}, "[20]": {"target": "Tyrosine-protein kinase JAK1 (Homo sapiens) (UniProt P23458)", "experiment": "Inhibition of JAK1 kinase domain 1 assessed as enzyme activity at 1 uM relative to untreated control", "design": "scale not given: the % may be the effect or the level left"}, "[21]": {"target": "Tyrosine-protein kinase ZAP-70 (Homo sapiens) (UniProt P43403)", "experiment": "Inhibition of ZAP70 assessed as enzyme activity at 1 uM relative to untreated control", "design": "scale not given: the % may be the effect or the level left"}, "[22]": {"target": "Insulin receptor-related protein (Homo sapiens) (UniProt P14616)", "experiment": "Inhibition of INSRR assessed as enzyme activity at 1 uM relative to untreated control", "design": "scale not given: the % may be the effect or the level left"}, "[23]": {"target": "Serine/threonine-protein kinase Nek7 (Homo sapiens) (UniProt Q8TDX7)", "experiment": "Inhibition of NEK7 assessed as enzyme activity at 1 uM relative to untreated control", "design": "scale not given: the % may be the effect or the level left"}, "[24]": {"target": "Receptor-interacting serine/threonine-protein kinase 4 (Homo sapiens) (UniProt P57078)", "experiment": "Inhibition of RIPK4 assessed as enzyme activity at 1 uM relative to untreated control", "design": "scale not given: the % may be the effect or the level left"}, "[25]": {"target": "Mitogen-activated protein kinase 10 (Homo sapiens) (UniProt P53779)", "sequence (P53779 whole entry)": "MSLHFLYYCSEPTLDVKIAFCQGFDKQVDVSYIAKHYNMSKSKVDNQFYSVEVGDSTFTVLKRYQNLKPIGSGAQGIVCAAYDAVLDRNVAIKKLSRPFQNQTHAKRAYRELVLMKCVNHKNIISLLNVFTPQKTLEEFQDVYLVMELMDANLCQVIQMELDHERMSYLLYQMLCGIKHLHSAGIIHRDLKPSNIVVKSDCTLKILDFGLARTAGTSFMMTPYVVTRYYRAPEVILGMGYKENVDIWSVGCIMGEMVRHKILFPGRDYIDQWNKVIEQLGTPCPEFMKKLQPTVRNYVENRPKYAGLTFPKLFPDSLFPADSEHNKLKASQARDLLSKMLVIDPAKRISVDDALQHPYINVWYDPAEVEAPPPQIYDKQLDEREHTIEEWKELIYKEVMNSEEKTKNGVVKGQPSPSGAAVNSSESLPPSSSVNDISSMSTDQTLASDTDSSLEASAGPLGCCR", "experiment": "Inhibition of JNK3 assessed as enzyme activity at 1 uM relative to untreated control", "design": "scale not given: the % may be the effect or the level left"}, "[26]": {"target": "Receptor-type tyrosine-protein kinase FLT3 (Homo sapiens) (UniProt P36888)", "experiment": "Inhibition of FLT3 assessed as enzyme activity at 1 uM relative to untreated control", "design": "scale not given: the % may be the effect or the level left"}, "[27]": {"system": "Mast/stem cell growth factor receptor Kit (Homo sapiens), P10721 [D816V]", "sequence (P10721 whole entry D816V)": "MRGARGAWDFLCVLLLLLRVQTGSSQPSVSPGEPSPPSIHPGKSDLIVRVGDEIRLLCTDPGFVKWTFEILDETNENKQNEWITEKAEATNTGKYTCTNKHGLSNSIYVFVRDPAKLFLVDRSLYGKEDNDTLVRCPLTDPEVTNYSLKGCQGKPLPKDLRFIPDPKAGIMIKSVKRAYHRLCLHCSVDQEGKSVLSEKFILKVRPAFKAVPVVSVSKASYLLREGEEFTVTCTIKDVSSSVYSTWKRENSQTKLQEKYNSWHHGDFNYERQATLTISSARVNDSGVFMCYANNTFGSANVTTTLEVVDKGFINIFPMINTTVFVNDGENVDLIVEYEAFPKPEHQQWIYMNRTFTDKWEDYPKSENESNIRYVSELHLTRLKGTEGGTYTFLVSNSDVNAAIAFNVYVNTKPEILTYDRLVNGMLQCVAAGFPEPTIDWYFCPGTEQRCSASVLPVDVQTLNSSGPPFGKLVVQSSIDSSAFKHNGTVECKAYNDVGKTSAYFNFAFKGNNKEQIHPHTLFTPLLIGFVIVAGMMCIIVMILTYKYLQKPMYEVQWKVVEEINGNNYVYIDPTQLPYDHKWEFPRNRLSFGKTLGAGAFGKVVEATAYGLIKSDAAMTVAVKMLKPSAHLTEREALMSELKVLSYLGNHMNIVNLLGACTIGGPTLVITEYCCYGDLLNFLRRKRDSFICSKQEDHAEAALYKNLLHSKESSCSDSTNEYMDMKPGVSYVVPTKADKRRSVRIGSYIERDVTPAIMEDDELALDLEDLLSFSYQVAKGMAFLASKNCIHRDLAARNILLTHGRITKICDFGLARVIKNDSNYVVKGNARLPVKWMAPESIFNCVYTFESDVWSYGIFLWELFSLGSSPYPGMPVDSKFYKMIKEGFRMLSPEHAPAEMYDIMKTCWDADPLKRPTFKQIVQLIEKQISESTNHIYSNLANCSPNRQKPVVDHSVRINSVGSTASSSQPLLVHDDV", "experiment": "Inhibition of KIT D816V mutant assessed as enzyme activity at 1 uM relative to untreated control", "design": "scale not given: the % may be the effect or the level left"}, "[28]": {"target": "Serine/threonine-protein kinase Nek1 (Homo sapiens) (UniProt Q96PY6)", "experiment": "Inhibition of NEK1 assessed as enzyme activity at 1 uM relative to untreated control", "design": "scale not given: the % may be the effect or the level left"}, "[29]": {"target": "Serine/threonine-protein kinase SIK2 (Homo sapiens) (UniProt Q9H0K1)", "sequence (Q9H0K1 whole entry, looked up)": "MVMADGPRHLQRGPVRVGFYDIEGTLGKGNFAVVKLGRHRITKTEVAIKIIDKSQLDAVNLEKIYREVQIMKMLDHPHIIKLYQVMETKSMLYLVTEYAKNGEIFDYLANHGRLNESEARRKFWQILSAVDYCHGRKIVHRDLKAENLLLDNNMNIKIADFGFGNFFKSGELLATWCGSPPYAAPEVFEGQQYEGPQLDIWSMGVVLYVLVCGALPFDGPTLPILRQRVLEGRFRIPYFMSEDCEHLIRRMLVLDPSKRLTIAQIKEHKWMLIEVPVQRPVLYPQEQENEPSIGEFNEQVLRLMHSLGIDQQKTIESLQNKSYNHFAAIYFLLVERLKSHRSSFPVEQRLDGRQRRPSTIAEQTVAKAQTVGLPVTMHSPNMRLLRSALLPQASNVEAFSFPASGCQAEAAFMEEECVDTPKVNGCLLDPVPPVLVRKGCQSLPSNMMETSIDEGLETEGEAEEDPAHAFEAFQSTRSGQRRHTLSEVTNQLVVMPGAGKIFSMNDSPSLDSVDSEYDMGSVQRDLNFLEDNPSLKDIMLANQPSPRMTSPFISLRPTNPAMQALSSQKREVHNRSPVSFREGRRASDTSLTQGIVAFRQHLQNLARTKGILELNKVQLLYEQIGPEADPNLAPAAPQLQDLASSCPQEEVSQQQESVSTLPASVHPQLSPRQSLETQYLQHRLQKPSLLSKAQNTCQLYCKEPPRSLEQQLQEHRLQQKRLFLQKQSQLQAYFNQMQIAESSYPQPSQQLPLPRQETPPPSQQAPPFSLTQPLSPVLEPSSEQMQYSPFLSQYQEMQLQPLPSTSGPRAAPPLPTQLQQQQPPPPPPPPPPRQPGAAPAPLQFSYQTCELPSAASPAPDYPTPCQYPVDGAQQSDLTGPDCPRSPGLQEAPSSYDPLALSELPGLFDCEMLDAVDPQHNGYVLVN", "experiment": "Inhibition of SNF1LK2 assessed as enzyme activity at 1 uM relative to untreated control", "design": "scale not given: the % may be the effect or the level left"}, "[30]": {"target": "Phosphatidylinositol 4,5-bisphosphate 3-kinase catalytic subunit beta isoform (Homo sapiens) (UniProt P42338)", "experiment": "Inhibition of PIK3CB assessed as enzyme activity at 1 uM relative to untreated control", "design": "scale not given: the % may be the effect or the level left"}, "[31]": {"target": "Cyclin-dependent kinase 16 (Homo sapiens) (UniProt Q00536)", "experiment": "Inhibition of PCTK1 assessed as enzyme activity at 1 uM relative to untreated control", "design": "scale not given: the % may be the effect or the level left"}, "[32]": {"target": "Mitogen-activated protein kinase kinase kinase 11 (Homo sapiens) (UniProt Q16584)", "experiment": "Inhibition of MLK3 assessed as enzyme activity at 1 uM relative to untreated control", "design": "scale not given: the % may be the effect or the level left"}, "[33]": {"target": "cGMP-dependent protein kinase 2 (Homo sapiens) (UniProt Q13237)", "sequence (Q13237 whole entry)": "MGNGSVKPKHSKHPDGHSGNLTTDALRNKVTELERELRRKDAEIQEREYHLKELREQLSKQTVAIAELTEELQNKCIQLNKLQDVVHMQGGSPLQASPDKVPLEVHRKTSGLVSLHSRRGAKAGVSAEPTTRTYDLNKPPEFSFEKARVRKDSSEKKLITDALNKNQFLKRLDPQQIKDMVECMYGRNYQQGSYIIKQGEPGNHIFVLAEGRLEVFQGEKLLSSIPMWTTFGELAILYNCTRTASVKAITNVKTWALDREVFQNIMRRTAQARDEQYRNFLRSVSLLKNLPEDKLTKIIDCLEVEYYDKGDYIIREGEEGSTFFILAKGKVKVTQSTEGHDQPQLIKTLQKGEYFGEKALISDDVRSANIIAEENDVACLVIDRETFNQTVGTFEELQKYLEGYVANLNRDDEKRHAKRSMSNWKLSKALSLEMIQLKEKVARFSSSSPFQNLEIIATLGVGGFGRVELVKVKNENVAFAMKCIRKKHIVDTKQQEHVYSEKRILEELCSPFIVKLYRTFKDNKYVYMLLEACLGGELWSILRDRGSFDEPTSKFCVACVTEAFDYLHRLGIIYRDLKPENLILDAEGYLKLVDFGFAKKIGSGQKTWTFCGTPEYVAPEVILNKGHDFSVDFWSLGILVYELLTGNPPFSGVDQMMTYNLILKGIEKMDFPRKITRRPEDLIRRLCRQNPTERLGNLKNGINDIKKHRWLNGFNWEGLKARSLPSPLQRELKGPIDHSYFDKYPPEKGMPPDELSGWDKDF", "experiment": "Inhibition of PRKG2 assessed as enzyme activity at 1 uM relative to untreated control", "design": "scale not given: the % may be the effect or the level left"}, "[34]": {"system": "Receptor-type tyrosine-protein kinase FLT3 (Homo sapiens), P36888 [K663Q]", "experiment": "Inhibition of FLT3 K663Q mutant assessed as enzyme activity at 1 uM relative to untreated control", "design": "scale not given: the % may be the effect or the level left"}, "[35]": {"target": "NUAK family SNF1-like kinase 2 (Homo sapiens) (UniProt Q9H093)", "experiment": "Inhibition of SNARK assessed as enzyme activity at 1 uM relative to untreated control", "design": "scale not given: the % may be the effect or the level left"}, "[36]": {"target": "Homeodomain-interacting protein kinase 1 (Homo sapiens) (UniProt Q86Z02)", "experiment": "Inhibition of HIPK1 assessed as enzyme activity at 1 uM relative to untreated control", "design": "scale not given: the % may be the effect or the level left"}}, "data": [{"smiles": "Cc1ccc2c(Nc3ccc(Cl)cc3)nccc2c1Nc1ncccc1-c1ncnc2[nH]cnc12.Cl.Cl.Cl", "values": [{"measurement": "Activity", "setting": "[1]", "result": 100, "unit": "%"}, {"measurement": "Activity", "setting": "[2]", "result": 84, "unit": "%"}, {"measurement": "Activity", "setting": "[3]", "result": 96, "unit": "%"}, {"measurement": "Activity", "setting": "[4]", "result": 100, "unit": "%"}, {"measurement": "Activity", "setting": "[5]", "result": 45, "unit": "%"}, {"measurement": "ED50", "setting": "A-375", "result": 1.3, "unit": "mg/kg"}, {"measurement": "Activity", "setting": "[6]", "result": 100, "unit": "%"}, {"measurement": "Activity", "setting": "[7]", "result": 78, "unit": "%"}, {"measurement": "IC50", "setting": "Angiopoietin-1 receptor", "result": 120, "unit": "nM"}, {"measurement": "Activity", "setting": "[8]", "result": 100, "unit": "%"}, {"measurement": "Activity", "setting": "[9]", "result": 93, "unit": "%"}, {"measurement": "Activity", "setting": "[10]", "result": 100, "unit": "%"}, {"measurement": "Activity", "setting": "[11]", "result": 100, "unit": "%"}, {"measurement": "Activity", "setting": "[12]", "result": 3.9, "unit": "%"}, {"measurement": "half-life", "setting": "[13]", "result": 3.3, "unit": "h"}, {"measurement": "Activity", "setting": "[14]", "result": 92, "unit": "%"}, {"measurement": "Activity", "setting": "[15]", "result": 100, "unit": "%"}, {"measurement": "Activity", "setting": "[16]", "result": 57, "unit": "%"}, {"measurement": "Activity", "setting": "[17]", "result": 100, "unit": "%"}, {"measurement": "Activity", "setting": "[18]", "result": 100, "unit": "%"}, {"measurement": "Activity", "setting": "[19]", "result": 100, "unit": "%"}, {"measurement": "Activity", "setting": "[20]", "result": 98, "unit": "%"}, {"measurement": "Activity", "setting": "[21]", "result": 100, "unit": "%"}, {"measurement": "Activity", "setting": "[22]", "result": 78, "unit": "%"}, {"measurement": "Activity", "setting": "[23]", "result": 88, "unit": "%"}, {"measurement": "Activity", "setting": "[24]", "result": 64, "unit": "%"}, {"measurement": "Activity", "setting": "[25]", "result": 86, "unit": "%"}, {"measurement": "Activity", "setting": "[26]", "result": 62, "unit": "%"}, {"measurement": "Activity", "setting": "[27]", "result": 100, "unit": "%"}, {"measurement": "Activity", "setting": "[28]", "result": 100, "unit": "%"}, {"measurement": "Activity", "setting": "[29]", "result": 100, "unit": "%"}, {"measurement": "Activity", "setting": "[30]", "result": 100, "unit": "%"}, {"measurement": "Activity", "setting": "[31]", "result": 98, "unit": "%"}, {"measurement": "Activity", "setting": "[32]", "result": 100, "unit": "%"}, {"measurement": "Activity", "setting": "[33]", "result": 100, "unit": "%"}, {"measurement": "Activity", "setting": "[34]", "result": 75, "unit": "%"}, {"measurement": "Activity", "setting": "[35]", "result": 100, "unit": "%"}, {"measurement": "Activity", "setting": "[36]", "result": 99, "unit": "%"}]}]}
